Results: patent US5696136A, “Method of treating psychosis using azaheterocyclylmethyl” (Bayer Aktiengesellschaft, priority 1991, dated 1997)
pKi: −log10 of the molar value. Counter-ions that a name gives are not always drawn. Like-named read-outs stand apart in the source and are kept apart here.

Experiments:
[1] = target: 5-HT1 receptor; assay: Affinity for the 5-HT1 receptor; receptor-binding studies using calf hippocampus membrane preparations, 3H-serotonin; conditions: calf hippocampus membranes
Description: Affinity for the 5-HT1 receptor
The high affinity of the compounds according to the invention for 5-hydroxytryptamine receptors of subtype 1 is shown in Table 1 by way of example. The values shown are data which have been determined from receptor-binding studies using calf hippocampus membrane preparations. To this end, ^3 H-serotonin was used as radioactively labelled ligand.

[2] = target: dopamine D2 receptor (Rattus norvegicus, UniProt P61169); assay: Dopamine D2 receptor test; binding of 3H-sulpiride to membranes from the striatum of rats
Sequence of dopamine D2 receptor (P61169 whole entry): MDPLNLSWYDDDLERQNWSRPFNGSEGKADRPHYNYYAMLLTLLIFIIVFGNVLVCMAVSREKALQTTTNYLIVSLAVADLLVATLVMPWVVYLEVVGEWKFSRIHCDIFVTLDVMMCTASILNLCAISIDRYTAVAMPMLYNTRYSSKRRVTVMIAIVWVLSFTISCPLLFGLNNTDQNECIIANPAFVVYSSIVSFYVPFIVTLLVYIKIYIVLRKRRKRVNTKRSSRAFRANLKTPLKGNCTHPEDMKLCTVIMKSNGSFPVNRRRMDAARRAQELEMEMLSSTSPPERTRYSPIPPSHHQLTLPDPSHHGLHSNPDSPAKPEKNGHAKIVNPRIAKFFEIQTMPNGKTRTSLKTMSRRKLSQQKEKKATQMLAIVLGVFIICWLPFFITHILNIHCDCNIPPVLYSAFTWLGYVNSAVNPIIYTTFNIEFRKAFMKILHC
Procedure: In this test the binding of the selective D2 receptor antagonist ^3 H-sulpiride to membranes from the striatum of rats is measured. Compounds which bind to dopamine D2 receptors inhibit the binding of ^3 H-sulpiride in a concentration-dependent manner. IC50 values are determined from the displacement curves and the inhibition constants Ki calculated from these values.

[3] = target: T1, 5-HT1A receptor (Bos taurus, UniProt F6Q2H9); assay: Affinity for the 5-HT1A receptor; binding of 3H-ipsapiron to 5-HT1A receptors in calf hippocampus membranes
T1 construct: 5-HT1A receptors in calf hippocampus membranes; from tissue; host or cells: calf hippocampus membranes
T1 sequence (F6Q2H9 1-422): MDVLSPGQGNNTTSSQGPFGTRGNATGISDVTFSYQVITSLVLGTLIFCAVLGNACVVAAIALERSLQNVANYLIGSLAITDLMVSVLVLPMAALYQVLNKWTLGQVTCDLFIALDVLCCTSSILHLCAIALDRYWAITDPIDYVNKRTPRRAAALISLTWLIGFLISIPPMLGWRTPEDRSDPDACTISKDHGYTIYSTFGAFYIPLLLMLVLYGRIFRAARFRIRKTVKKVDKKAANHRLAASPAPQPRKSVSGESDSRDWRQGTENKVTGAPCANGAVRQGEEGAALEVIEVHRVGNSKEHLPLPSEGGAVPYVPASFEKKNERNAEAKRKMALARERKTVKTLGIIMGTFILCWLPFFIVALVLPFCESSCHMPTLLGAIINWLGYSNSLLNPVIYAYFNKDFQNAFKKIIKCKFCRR
Procedure: Affinity for the 5-HT1A receptor
[W. U. Dompert et al., Naunyn-Schmiedeberg's Arch. Pharmacol. (1985), 328, 467-470].
In this test the binding of ^3 H-ipsapiron to 5-HT1A receptors in calf hippocampus membranes is measured.

[4] = system: α-adrenergic; conditions: hydrochloride; literature; cited from earlier work
[5] = 3H-sulpiride, rat striatum membranes, Ki calculated from IC50, read-out: Ki

| SMILES | pKi [1] | pKi [3] | pKi [2, 5] | further results |
| --- | --- | --- | --- | --- |
| COc1cccc2c1OC(CN1CCC(n3c(=O)[nH]c4ccccc43)CC1)CC2 (centres unmarked) [Example 4] | 8.70 | – | – | – |
| O=c1[nH]c2ccccc2n1C1CCN(CC2CCc3ccccc3O2)CC1 (centres unmarked) [Example 3, 1-(Chroman-2-yl-methyl)-4-(2-oxo-1-benzimidazolyl)-piperidine] | – | – | – | pKi [2]: 9.40 |
| COc1cccc2c1OC(CN1CC=C(n3c(=O)[nH]c4ccccc43)CC1)CC2 (centres unmarked) [Example 6] | – | 8.85 | 8.64 | – |
| c1ccc2c(c1)CCC(CN1CCCCC1)O2 (centres unmarked) [1-[(3,4-dihydro-2H-1-benzopyran-2-yl)methyl]piperidine] | – | – | – | α-adrenergic-blocking effect [4]: α-adrenergic-blocking effect |
| COc1cccc2c1OC(CN1CCC(CN3C(=O)c4ccccc4C3=O)CC1)CC2 (centres unmarked) [Example 2, 2-[4-(Isoindol-1,3-dion-2-yl)methyl-piperidin-1-yl)methyl-8-methoxychroman oxalate hydrate] | 8.52 | – | 8.74 | – |
| O=c1[nH]c2ccccc2n1C1=CCN(CC2CCc3ccccc3O2)CC1 (centres unmarked) [Example 5] | – | 8.82 | – | – |
